Measurements taken from patent US9796711B2, “Substituted pyrazolo[3,4-b]pyridin-6-carboxylic acids and method of use” (AbbVie S.àr.l., priority 2015, dated 2017).

Target: T1, ΔF508-CFTR (Homo sapiens, UniProt P13569, DEL508-508)
T1 construct: host or cells: CFBE41o-, doxycycline-inducible
Assay: CFTR cell surface levels using HRP-tagged ΔF508-CFTR expressing CFBE cells, in the presence of a co-corrector
Type: cell-based
Conditions: HRP-tagged ΔF508-CFTR expressing CFBE cells, in the presence of 3 μM co-corrector; for EC50: read-out: EC50
Method in brief: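 Cells were seeded with 0.5 μg/mL doxycycline and held 68 h at 37 °C. Test compounds plus 3 μM co-corrector (final 0.1% DMSO) were then added for 20 h at 33 °C. Washed cells received HRP substrate, and luminescence was normalized between DMSO and 3 μM co-corrector controls.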

T1 sequence (P13569 with tags, fused parts or gaps DEL508-508): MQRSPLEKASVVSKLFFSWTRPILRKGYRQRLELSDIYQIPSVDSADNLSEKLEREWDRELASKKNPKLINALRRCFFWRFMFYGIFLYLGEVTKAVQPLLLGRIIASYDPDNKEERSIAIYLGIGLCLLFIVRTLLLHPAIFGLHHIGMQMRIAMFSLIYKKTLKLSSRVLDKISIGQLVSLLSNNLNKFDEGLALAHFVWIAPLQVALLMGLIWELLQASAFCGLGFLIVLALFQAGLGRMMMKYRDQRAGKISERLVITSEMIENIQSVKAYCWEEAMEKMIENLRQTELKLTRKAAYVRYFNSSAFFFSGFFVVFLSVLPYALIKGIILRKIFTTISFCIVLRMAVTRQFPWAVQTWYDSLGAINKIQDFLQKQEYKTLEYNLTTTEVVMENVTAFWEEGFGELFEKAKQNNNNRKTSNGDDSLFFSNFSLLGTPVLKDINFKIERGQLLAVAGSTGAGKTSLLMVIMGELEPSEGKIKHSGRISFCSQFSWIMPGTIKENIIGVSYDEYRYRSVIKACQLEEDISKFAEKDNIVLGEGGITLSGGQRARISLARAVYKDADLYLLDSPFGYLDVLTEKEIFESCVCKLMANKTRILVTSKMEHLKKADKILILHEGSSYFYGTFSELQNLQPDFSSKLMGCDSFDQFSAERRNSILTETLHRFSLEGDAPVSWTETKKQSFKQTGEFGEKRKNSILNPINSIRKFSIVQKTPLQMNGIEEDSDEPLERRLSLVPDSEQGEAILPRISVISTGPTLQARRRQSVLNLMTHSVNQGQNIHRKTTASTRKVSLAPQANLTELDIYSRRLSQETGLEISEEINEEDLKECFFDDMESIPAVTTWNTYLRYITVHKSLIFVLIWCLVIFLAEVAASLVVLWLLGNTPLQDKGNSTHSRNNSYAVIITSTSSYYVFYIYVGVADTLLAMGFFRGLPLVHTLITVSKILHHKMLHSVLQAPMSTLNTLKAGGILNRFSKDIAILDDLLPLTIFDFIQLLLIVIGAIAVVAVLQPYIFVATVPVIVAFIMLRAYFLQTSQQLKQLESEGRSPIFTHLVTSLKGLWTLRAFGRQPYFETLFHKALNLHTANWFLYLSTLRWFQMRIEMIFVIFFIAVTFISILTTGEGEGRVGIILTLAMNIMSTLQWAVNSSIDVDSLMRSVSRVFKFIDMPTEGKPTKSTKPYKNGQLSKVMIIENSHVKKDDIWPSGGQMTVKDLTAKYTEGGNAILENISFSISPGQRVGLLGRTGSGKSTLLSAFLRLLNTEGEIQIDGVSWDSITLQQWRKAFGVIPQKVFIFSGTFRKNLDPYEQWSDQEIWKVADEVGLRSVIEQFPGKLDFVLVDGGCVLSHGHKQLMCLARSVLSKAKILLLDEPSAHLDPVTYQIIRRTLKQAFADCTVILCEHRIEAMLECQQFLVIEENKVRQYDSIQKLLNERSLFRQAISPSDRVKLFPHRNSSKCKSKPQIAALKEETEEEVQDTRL

| SMILES | % Activation [%] | EC50 [µM] |
| --- | --- | --- |
| CN(C1CCN(c2cc(C(=O)O)nc3c2c(C2CCC2)nn3-c2ccccc2)CC1)C1COC1 [compound 735, 3-cyclobutyl-4-{4-[methyl(oxetan-3-yl)amino]piperidin-1-yl}-1-phenyl-1H-pyrazolo[3,4-b]pyridine-6-carboxylic acid] | 437.7 | 0.225 |
| O=C(O)c1cc(N2CCC(C3CCN(C4COC4)CC3)CC2)c2c(C3CCC3)nn(-c3ccccc3)c2n1 [compound 736, 3-cyclobutyl-4-[1′-(oxetan-3-yl)[4,4′-bipiperidin]-1-yl]-1-phenyl-1H-pyrazolo[3,4-b]pyridine-6-carboxylic acid] | 511.6 | 0.0422 |
| CN(C)C1CCN(c2cc(C(=O)O)nc3c2c(C2CCC2)nn3-c2ccccc2)CC1 [compound 737, 3-cyclobutyl-4-[4-(dimethylamino)piperidin-1-yl]-1-phenyl-1H-pyrazolo[3,4-b]pyridine-6-carboxylic acid] | 343.3 | 1.67 |
| CN1CCN(C(=O)C2CCN(c3cc(C(=O)O)nc4c3c(C3CCC3)nn4-c3ccccc3)CC2)CC1 [compound 739, 3-cyclobutyl-4-[4-(4-methylpiperazine-1-carbonyl)piperidin-1-yl]-1-phenyl-1H-pyrazolo[3,4-b]pyridine-6-carboxylic acid] | 327.2 | 1.67 |
| CC(C)c1nn(-c2ccc(F)cc2)c2nc(C(=O)O)cc(N3CC(C4CN(C)CCO4)C3)c12 (stereo not drawn) [compound 740, 1-(4-fluorophenyl)-4-[3-(4-methylmorpholin-2-yl)azetidin-1-yl]-3-(propan-2-yl)-1H-pyrazolo[3,4-b]pyridine-6-carboxylic acid] | 194.7 | 0.424 |
| CCOCCN1CCC(N2CCN(c3cc(C(=O)O)nc4c3c(C(C)C)nn4-c3ccc(F)cc3)CC2)CC1 [compound 741, 4-{4-[1-(2-ethoxyethyl)piperidin-4-yl]piperazin-1-yl}-1-(4-fluorophenyl)-3-(propan-2-yl)-1H-pyrazolo[3,4-b]pyridine-6-carboxylic acid] | 303 | 0.669 |
| CC(O)CN1CCC(N2CCN(c3cc(C(=O)O)nc4c3c(C(C)C)nn4-c3ccc(F)cc3)CC2)CC1 (stereo not drawn) [compound 742, 1-(4-fluorophenyl)-4-{4-[1-(2-hydroxypropyl)piperidin-4-yl]piperazin-1-yl}-3-(propan-2-yl)-1H-pyrazolo[3,4-b]pyridine-6-carboxylic acid] | 126.1 | 5 |
| CC(C)c1nn(-c2ccc(F)cc2)c2nc(C(=O)O)cc(N3CCN(C4CCN(C5CC5)CC4)CC3)c12 [compound 743, 4-[4-(1-cyclopropylpiperidin-4-yl)piperazin-1-yl]-1-(4-fluorophenyl)-3-(propan-2-yl)-1H-pyrazolo[3,4-b]pyridine-6-carboxylic acid] | 330.5 | 1.24 |
| CC(C)c1nn(-c2ccc(F)cc2)c2nc(C(=O)O)cc(N3CCC(N4CCN(C5COC5)CC4)CC3)c12 [compound 744, 1-(4-fluorophenyl)-4-{4-[4-(oxetan-3-yl)piperazin-1-yl]piperidin-1-yl}-3-(propan-2-yl)-1H-pyrazolo[3,4-b]pyridine-6-carboxylic acid] | 337.3 | 0.735 |
| COCCN1CCN(C2CCN(c3cc(C(=O)O)nc4c3c(C(C)C)nn4-c3ccc(F)cc3)CC2)CC1 [compound 746, 1-(4-fluorophenyl)-4-{4-[4-(2-methoxyethyl)piperazin-1-yl]piperidin-1-yl}-3-(propan-2-yl)-1H-pyrazolo[3,4-b]pyridine-6-carboxylic acid] | 418.4 | 0.549 |
| CCN(CC)CCCC1CCN(c2cc(C(=O)O)nc3c2c(C(C)C)nn3-c2ccc(F)cc2)CC1 [compound 747, 4-{4-[3-(diethylamino)propyl]piperidin-1-yl}-1-(4-fluorophenyl)-3-(propan-2-yl)-1H-pyrazolo[3,4-b]pyridine-6-carboxylic acid] | 475.3 | 1.67 |
| CC(C)c1nn(-c2ccc(F)cc2)c2nc(C(=O)O)cc(N3CCC(CCCN4CCCC4)CC3)c12 [compound 749, 1-(4-fluorophenyl)-3-(propan-2-yl)-4-{4-[3-(pyrrolidin-1-yl)propyl]piperidin-1-yl}-1H-pyrazolo[3,4-b]pyridine-6-carboxylic acid] | 387 | 0.277 |
| CCN(C1CCN(c2cc(C(=O)O)nc3c2c(C(C)C)nn3-c2ccc(F)cc2)CC1)C1COC1 [compound 750, 4-{4-[ethyl(oxetan-3-yl)amino]piperidin-1-yl}-1-(4-fluorophenyl)-3-(propan-2-yl)-1H-pyrazolo[3,4-b]pyridine-6-carboxylic acid] | 394.1 | 0.503 |
| CC(C)c1nn(-c2ccc(F)cc2)c2nc(C(=O)O)cc(N3CCC(N(C)C4COC4)CC3)c12 [compound 751, 1-(4-fluorophenyl)-4-{4-[methyl(oxetan-3-yl)amino]piperidin-1-yl}-3-(propan-2-yl)-1H-pyrazolo[3,4-b]pyridine-6-carboxylic acid] | 400.2 | 1.59 |
| CC(C)c1nn(-c2ccc(F)cc2)c2nc(C(=O)O)cc(N3CCC(C4CCN(C5COC5)CC4)CC3)c12 [compound 752, 1-(4-fluorophenyl)-4-[1′-(oxetan-3-yl)[4,4′-bipiperidin]-1-yl]-3-(propan-2-yl)-1H-pyrazolo[3,4-b]pyridine-6-carboxylic acid] | 530.9 | 0.104 |
| CC(C)c1nn(-c2ccc(F)cc2)c2nc(C(=O)O)cc(N3CCC(C(=O)N4CCN(C)CC4)CC3)c12 [compound 755, 1-(4-fluorophenyl)-4-[4-(4-methylpiperazine-1-carbonyl)piperidin-1-yl]-3-(propan-2-yl)-1H-pyrazolo[3,4-b]pyridine-6-carboxylic acid] | 270.9 | 1.67 |
| CC(C)c1nn(-c2ccc(F)cc2)c2nc(C(=O)O)cc(N3CCC(N4CCOCC4)CC3)c12 [compound 756, 1-(4-fluorophenyl)-4-[4-(morpholin-4-yl)piperidin-1-yl]-3-(propan-2-yl)-1H-pyrazolo[3,4-b]pyridine-6-carboxylic acid] | 446 | 0.401 |
| CC(C)c1nn(-c2ccc(F)cc2)c2nc(C(=O)O)cc(N3CC(N4CCC(N(C)C5COC5)CC4)C3)c12 [compound 758, 1-(4-fluorophenyl)-4-(3-{4-[methyl(oxetan-3-yl)amino]piperidin-1-yl}azetidin-1-yl)-3-(propan-2-yl)-1H-pyrazolo[3,4-b]pyridine-6-carboxylic acid] | 139.5 | 0.812 |
| CC(C)c1nn(-c2ccc(F)cc2)c2nc(C(=O)O)cc(N3CC(N4CCC(N5CCOCC5)CC4)C3)c12 [compound 759, 1-(4-fluorophenyl)-4-{3-[4-(morpholin-4-yl)piperidin-1-yl]azetidin-1-yl}-3-(propan-2-yl)-1H-pyrazolo[3,4-b]pyridine-6-carboxylic acid] | 207 | 1.67 |
| CC(C)c1nn(-c2ccc(F)cc2)c2nc(C(=O)O)cc(N3CCN(CCCN(C)C)CC3)c12 [compound 760, 4-{4-[3-(dimethylamino)propyl]piperazin-1-yl}-1-(4-fluorophenyl)-3-(propan-2-yl)-1H-pyrazolo[3,4-b]pyridine-6-carboxylic acid] | 131.6 | 5 |
| CC(C)c1nn(-c2ccc(F)cc2)c2nc(C(=O)O)cc(N3CCC(C)(N4CCN(C)CC4)CC3)c12 [compound 761, 1-(4-fluorophenyl)-4-[4-methyl-4-(4-methylpiperazin-1-yl)piperidin-1-yl]-3-(propan-2-yl)-1H-pyrazolo[3,4-b]pyridine-6-carboxylic acid] | 284 | 1.67 |
| CC(C)c1nn(-c2ccc(F)cc2)c2nc(C(=O)O)cc(N3CCC(OCCN4CCCCC4)CC3)c12 [compound 762, 1-(4-fluorophenyl)-4-{4-[2-(piperidin-1-yl)ethoxy]piperidin-1-yl}-3-(propan-2-yl)-1H-pyrazolo[3,4-b]pyridine-6-carboxylic acid] | 442.6 | 0.462 |
| O=C(O)c1cc(N2CCC(CN3CCOCC3)CC2)c2c(C3CCC3)nn(C3CCCCC3)c2n1 [compound 806, 3-cyclobutyl-1-cyclohexyl-4-{4-[(morpholin-4-yl)methyl]piperidin-1-yl}-1H-pyrazolo[3,4-b]pyridine-6-carboxylic acid] | 435.5 | 0.225 |
| O=C(O)c1cc(N2CCC(CCN3CCOCC3)CC2)c2c(C3CCC3)nn(C3CCCCC3)c2n1 [compound 807, 3-cyclobutyl-1-cyclohexyl-4-{4-[2-(morpholin-4-yl)ethyl]piperidin-1-yl}-1H-pyrazolo[3,4-b]pyridine-6-carboxylic acid] | 389.35 | 0.0725 |
| O=C(O)c1cc(-c2ccc(CN3CCOCC3)cc2)c2c(OC3CCC3)nn(C3CCCCC3)c2n1 [compound 808, 3-(cyclobutyloxy)-1-cyclohexyl-4-{4-[(morpholin-4-yl)methyl]phenyl}-1H-pyrazolo[3,4-b]pyridine-6-carboxylic acid] | 297 | 0.264 |
| COc1cc(-n2nc(C3CCC3)c3c(N4CCC(N5CCOCC5)CC4)cc(C(=O)O)nc32)ccn1 [compound 816, 3-cyclobutyl-1-(2-methoxypyridin-4-yl)-4-[4-(morpholin-4-yl)piperidin-1-yl]-1H-pyrazolo[3,4-b]pyridine-6-carboxylic acid] | 359.9 | 0.0676 |
| O=C(O)c1cc(N2CCC(CN3CCOCC3)CC2)c2c(C3CCC3)nn(-c3ccc(F)cc3)c2n1 [compound 821, 3-cyclobutyl-1-(4-fluorophenyl)-4-{4-[(morpholin-4-yl)methyl]piperidin-1-yl}-1H-pyrazolo[3,4-b]pyridine-6-carboxylic acid] | 545.15 | 0.134 |
